Test results as given in patent US20060084652A1, “Alkylidene-tetrahydronaphthalene derivatives, process for their production and their use as anti-inflammatory agents” (priority 2004, published 2006).

Columns and labels:
[1] = biological target: T1, glucocorticoid receptor (GR) (Homo sapiens, UniProt P04150); experiment: Binding to the glucocorticoid receptor, cytosol preparations of Sf9 cells, [3H]-dexamethasone as reference; conditions: recombinant GR
T1 construct: made in house; host or cells: Sf9 cells infected with recombinant baculovirus (cytosol preparation)
T1 sequence (P04150 1-777): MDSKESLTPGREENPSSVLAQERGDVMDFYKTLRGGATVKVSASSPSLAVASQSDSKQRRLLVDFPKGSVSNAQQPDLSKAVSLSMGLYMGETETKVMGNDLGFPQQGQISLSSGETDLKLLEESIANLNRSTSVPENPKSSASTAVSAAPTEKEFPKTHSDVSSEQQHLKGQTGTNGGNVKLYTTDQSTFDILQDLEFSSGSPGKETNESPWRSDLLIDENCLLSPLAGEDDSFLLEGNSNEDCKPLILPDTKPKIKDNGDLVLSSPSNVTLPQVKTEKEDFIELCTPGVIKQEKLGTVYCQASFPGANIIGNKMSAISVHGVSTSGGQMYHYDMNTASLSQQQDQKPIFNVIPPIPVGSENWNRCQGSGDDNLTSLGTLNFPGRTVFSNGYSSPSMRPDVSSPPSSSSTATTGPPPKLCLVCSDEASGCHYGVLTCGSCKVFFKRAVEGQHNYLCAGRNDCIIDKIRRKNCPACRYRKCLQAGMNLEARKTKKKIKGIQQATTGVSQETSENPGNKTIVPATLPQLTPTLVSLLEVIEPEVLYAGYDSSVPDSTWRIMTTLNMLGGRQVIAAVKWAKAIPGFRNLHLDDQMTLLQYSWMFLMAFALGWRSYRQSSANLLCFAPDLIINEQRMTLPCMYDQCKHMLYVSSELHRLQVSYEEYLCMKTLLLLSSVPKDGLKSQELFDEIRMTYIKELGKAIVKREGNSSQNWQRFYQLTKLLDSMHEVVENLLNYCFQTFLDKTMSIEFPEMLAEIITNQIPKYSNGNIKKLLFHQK
From the text: The binding of substances to the glucocorticoid receptor (GR) and other steroid-hormone receptors (mineral corticoid receptor (MR), progesterone receptor (PR) and androgen receptor (AR)) is examined with the aid of recombinantly produced receptors. Cytosol preparations of Sf9 cells, which had been infected with recombinant baculoviruses that code for the GR, are used for the binding studies. In comparison to the reference substance [^3H]-dexamethasone, the substances show a high affinity to the GR. IC50(GR)=20 nM and IC50(PR)>1 μM were measured for the compound from Example 1, and IC50(GR)=30 nM and IC50(PR)>1 μM were measured for the compound from Example 2.

[2] = test system: secretion of cytokine IL-8 in monocyte cell line THP-1; experiment: Inhibition of LPS-triggered IL-8 secretion in THP-1 cells (ELISA); assay type: cell-based, human
Procedure: The concentration of the cytokines was determined in the supernatant by means of commercially available ELISA kits.

Row | Compound | IC50 [1] [nM] | efficiency relative to [3H]-dexamethasone as a standard ([2]; IL-8 inhibition, THP-1) [%] | IC50 ([2]; THP-1, supernatant ELISA, read-out: IC50(IL8)) [nM]
1 | C/C=C1/C[C@@](O)(C(F)(F)F)[C@H](Nc2cccc3nc(C)ccc23)c2ccc(F)cc21 (relative stereo) [Example 1, (cis, Z)-4-Ethylidene-6-fluoro-1-[(2-methylquinolin-5-yl)amino]-2-(trifluoromethyl)-1,2,3,4-tetrahydronaphthalen-2-ol] | 20 | 90 | 6.4
2 | (cis, Z)-5-{[4-Ethylidene-6-fluoro-2,5-dihydroxy-2-(trifluoromethyl)-1,2,3,4-tetrahydronaphthalen-1-yl]amino}-quinolin-2(1H)-one [Example 2] | 30 | – | –
